Test results reported in patent US8946201B2, “Methods for inhibiting TGF-β” (Saint Louis University, priority 2007, dated 2015).

What was measured:
[1] = tested on: Mv1Lu cells; experiment: [Methyl-3H]thymidine incorporation (DNA synthesis), Mv1Lu cells; type: cell-based, mink; conditions: 18 hr
Procedure: (A, B, C, D, E, F) Cells were treated with 50 μg/ml cholesterol (A, B, C, D) and 50 μg/ml LDL (D) at 37° C. for 1 hr or with 1 μM fluvastatin or lovastatin (E) or several concentrations of fluvastatin (F) at 37° C. for 16 hr and then further incubated with increasing concentrations (as indicated) of TGF-β1 (A, B, C, E) or 50 pM TGF-β1 (D,F) for 2 hr. Northern blot analysis of PAI-1 and G3PDH was performed. A representative of a total of three analyses is shown (a). The relative intensities of the transcripts were quantified with a PhosphoImager. The ratio of the relative intensities of PAI-1 and G3PDH transcripts in cells treated without TGF-β1 and cholesterol, LDL or statins on the blot was taken as 1 fold or 100% of PAI-1 expression. The quantitative data from three independent analyses is shown (b). […] (G) Mv1Lu cells stably expressing a luciferase reporter gene driven by the PAI-1 promoter (MLECs-clone 32) were treated with increasing concentrations (as indicated) of cholesterol at 37 EC for 1 hr (a) or with 1 μM lovastatin at 37° C. for 16 hr (b) and then further incubated with 50 pM TGF-β for 7 hr. The luciferase activity in cells treated without cholesterol was taken as 100% (a). […] (H) Cells were incubated with 0.0625 and 0.125 pM TGF-β1 in the presence of increasing concentrations of cholesterol, as indicated. After 18 hr at 37° C., cell growth was determined by measurement of [^3H-methyl]thymidine incorporation into cellular DNA (a). The [^3H-methyl]thymidine incorporation in cells treated with vehicle only (T1); with TGF-β1 (T2); with cholesterol (T3); with cholesterol and TGF-β1 (T4) was measured. T1 was taken as 100%. The degree (%) of cholesterol-mediated reversal of TGF-β1 growth inhibition was estimated by the equation: % reversal=[1−(T3−T4/T1−T2)]×100 Cholesterol appeared to reverse TGF-β1 growth inhibition in a dose-dependent manner (b). The experiments were carried out in triplicate.
The growth of cholesterol-treated cells was determined by measurement of [methyl-^3H]thymidine incorporation into cellular DNA as described (30). Briefly, cells grown near confluence on 48-well clustered dishes were treated with several concentrations of cholesterol at 37° C. for 1 hr in serum-free DMEM. The final concentration of ethanol (the vehicle for cholesterol) in the medium was 0.2%. […] The [methyl-^3H]thymidine incorporation into cellular DNA was then determined by incubation of cells with [methyl-^3H]thymidine at 37° C. for 2 hr in DMEM containing 0.1% fetal calf serum. […]
Another prominent biological activity of TGF-β is growth inhibition of many different cell types. […] DNA synthesis was then determined by measurement of [^3H-methyl]thymidine incorporation into cellular DNA (FIG. 2Ha). […]

[2] = tested on: TβR-I and TβR-II; experiment: 125I-TGF-β1 affinity labeling, Mv1Lu cells; type: cell-based, mink; conditions: for effect on the LDL- or cholesterol-induced increase of 125I-TGF-β1 binding to TβR-I: co-treatment, β-CD 8 mM, nystatin 25 μg/ml, cholest-4-en-3-one 50 μg/ml (FIG. 4B, C)
Procedure: (A) Mv1Lu cells were treated with 50 μg/ml cholesterol at 37° C. After several time periods, as indicated, ^125I-TGF-β1-affinity labeling was performed at 0° C. ^125I-TGF-β1 affinity-labeled TGF-β receptors were analyzed by 7.5% SDS-PAGE and autoradiography (a) and quantified with a PhosphoImager. The bracket indicates the locations of ^125I-TGF-β1 affinity-labeled TβR-I and TβR-II. The ratio of ^125I-TGF-β1 binding to TβR-II and TβR-I is plotted against incubation time (b).
(B, C, D, E) Cells were treated with increasing concentrations of cholesterol in the presence (C) and absence (B, D, E) of 0.2% β-CD, as indicated. After 1 hr at 37° C., ^125I-TGF-β1 affinity labeling of TβR-I and TβR-II in cells was performed at 0° C. ^125I-TGF-β1 affinity-labeled TβR-I and TβR-II were analyzed by 7.5% SDS-PAGE and autoradiography or quantified with a PhosphoImager. A representative of a total of three analyses is shown (top). The bracket indicates the locations of ^125I-TGF-β affinity-labeled TβR-I and TβR-II. The relative intensities of ^125I-TGF-β1 affinity-labeled TβR-I and TβR-II in cells treated without cholesterol were taken as 100%. The quantitative data from three analyses is shown (bottom).
The bracket indicates the locations of ^125I-TGF-β1 affinity-labeled TβR-I and TβR-II. The relative intensities of ^125I-TGF-β1-TβR-I and ^125I-TGF-β1-TβR-II complexes, which were quantified with a PhosphoImager, are plotted against TGF-β1 concentrations (bottom).
(A, B, C, D, E, F) Cells were treated with LDL (50 μg protein/ml), VLDL (5 μg protein/ml), HDL (50 μg protein/ml), lipoprotein (a) (10 μg/ml), fluvastatin (F; 1 μM), lovastatin (L; 1 μM), nystatin (Nys; 25 μg/ml), β-CD (β-CD; 8 mM), cholest-4-en-3-one (3-one; 50 μg/ml) or cholesterol (Chol; 50 μg/ml) alone or combination of two. After 1 hr at 37° C. or 16 hr at 37° C. (for fluvastatin and lovastatin), ^125I-TGF-β1 affinity labeling of cell-surface TGF-β receptors was performed at 0° C. ^125I-TGF-β1 affinity-labeled TβR-I and TβR-II were analyzed by 7.5% SDS-PAGE and autoradiography. The relative intensities of TβR-I and TβR-II were quantified with a PhosphoImager. The ratio of ^125I-TGF-β1 binding to TβR-II and TβR-I were estimated. The numbers above the lane sequence denote the ratio of TβR-II/TβR-I.
(G) Mv1Lu cells were treated with 50 μg/ml of cholesterol and cholesterol analogs/derivatives including 25-hydroxycholesterol, 7-dehydrocholesterol (7-DHC), 7-ketocholesterol, 7β, 8β-epoxycholesterol, 7β-hydroxycholesterol, and oxidized 7-dehydrocholesterol (oxy-7DHC). After 1 hr at 37° C., ^125I-TGF-β1 affinity labeling of TGF-β receptors was performed. ^125I-TGF-β1 affinity-labeled TβR-I and TβR-II were analyzed by 7.5% SDS-PAGE and autoradiography. The bracket indicates the locations of ^125I-TGF-β1-affinity-labeled TβR-I and TβR-II. The relative intensities of ^125I-TGF-β1 affinity-labeled TβR-I and TβR-II were determined by a PhosphoImager. The ratios of ^125I-TGF-β1 binding to TβR-II and TβR-I were estimated. The numbers above the lane sequence denote the ratio of TβR-II/TβR-I.
After cross-linking, cell lysates were analyzed by 7.5% SDS-PAGE and autoradiography or quantified by a PhosphoImager. For all experiments, cholesterol or cholesterol derivatives were prepared as the stock solution with a concentration of 25 mg/ml in ethanol. The final concentration of ethanol in the medium was 0.2% (by vol.).

[3] = tested on: TβR-II; experiment: TGF-β1-induced degradation of TβR-II, Western blot; type: cell-based; conditions: 1% β-CD
Procedure: (E) Cells were treated with several concentrations of cholesterol (a,b) or LDL (c,d) as indicated in the presence and absence of 1% β-CD at 37° C. for 1 hr and further incubated with 50 pM TGF-β for 1 hr. The cell lysates were then subjected to 7.5% SDS-PAGE and Western blot analysis using antibodies to TβR-II and α-actin (a,c). The relative intensities of TβR-II and α-actin on the blot were quantified by densitometry (b,d). The ratio of the relative intensities of TβR-II and α-actin in cells treated without TGF-β1 was taken as the 100% level of TβR-II.
(F, G) Cells were treated with or without 1 μM lovastatin/fluvastatin or nystatin (25 μg/ml)/cholesterol (50 μg/ml) at 37° C. for 16 hr or 1 hr, respectively. The treated cells were directly analyzed by sucrose density gradient ultracentrifugation analysis (F) or further incubated with 50 pM TGF-β at 37° C. for several time periods as indicated (G). Western blot analysis of the sucrose density gradient fractions (F) and of TGF-β1-treated cell lysates (G) was performed using antibody to TβR-II. The relative levels of TβR-II and α-actin were quantified by densitometry. Fractions ⅘ and 7 represent lipid raft/caveolae and non-lipid raft fractions, respectively. […] The quantitative data from three independent analyses is shown (G, bottom). […]
Cells grown to near confluence on 12-well cluster dishes were treated with cholesterol or LDL in serum-free DMEM (vol.=0.5 ml/well) at 37° C. for 1 hr. […] Treated cells were lysed and cell lysates were analyzed by 7.5% SDS-PAGE and Western blot analysis using anti-Smad2, anti-P-Smad2, anti-caveolin-1, anti-TβR-I (alk5) or anti-TβR-II antibodies as described previously (30). […]
Lipid raft/caveolae-mediated endocytosis of receptor-bound TGF-β results in rapid degradation of TGF-β1 and suppression of TGF-β responsiveness. […] To test this, we analyzed the lipid raft/caveolae and non-lipid raft localization of TβR-I and TβR-II in the plasma membrane of cells treated with or without cholesterol (50 μg/ml) using sucrose density gradient ultracentrifugation analysis. […]

Row | Molecule | inhibition of DNA synthesis ([1]; 0.0625 pM) [%] | inhibition of DNA synthesis ([1]; 0.125 pM) [%] | half-maximum concentrations of binding to TβR-I and TβR-II ([2]; Mv1Lu cells treated with and without cholesterol, 0° C. 2.5 hr) [pM] | Kd ([2]; stated identical to the half-maximum concentration, read-out: apparent Kd of binding to the TGF-β receptors) [nM] | effect on the LDL- or cholesterol-induced increase of 125I-TGF-β1 binding to TβR-I [2] | effect on the cholesterol-enhanced TGF-β1-induced degradation of TβR-II [3]
1 | TGF-β1: transforming growth factor-beta 1, 25-kDa dimeric cytokine; also used 125I-labelled | ~30 | ~40 | 50 to 80 | 0.05 to 0.08 | – | –
2 | CC(C)CCC[C@@H](C)[C@H]1CC[C@H]2[C@@H]3CCC4=CC(=O)CC[C@]4(C)[C@H]3CC[C@]12C [4-cholesten-3-one, reference compound] | – | – | – | – | abolished | –
3 | OC[C@H]1O[C@@H]2O[C@H]3[C@H](O)[C@@H](O)[C@@H](O[C@H]4[C@H](O)[C@@H](O)[C@@H](O[C@H]5[C@H](O)[C@@H](O)[C@@H](O[C@H]6[C@H](O)[C@@H](O)[C@@H](O[C@H]7[C@H](O)[C@@H](O)[C@@H](O[C@H]8[C@H](O)[C@@H](O)[C@@H](O[C@H]1[C@H](O)[C@H]2O)O[C@@H]8CO)O[C@@H]7CO)O[C@@H]6CO)O[C@@H]5CO)O[C@@H]4CO)O[C@@H]3CO [β-CD, β-cyclodextrin, reference compound] | – | – | – | – | abolished | abolished
